Reference: US20040082662A1, “Polyisoprenylbenzophenone derivatives, processes for their preparation and use thereof” (Aventis Pharma Deutschland Gmbh, priority 2002, published 2004)

Key:
[1] = tested on: certain bee-pathogenic bacteria; details: cited from earlier work
[2] = Stability (physicochemical properties); details: neutral and acidic medium
Description: (§1) Stable in neutral and acidic medium.

[3] = Solubility (physicochemical properties)
Description: as §1

Staphylococcus aureus = assay: Test of the antibacterial activity (agar plate, antibiotic test sheets, inhibition halo); assay type: cell-based; details: 16 hours at 37° C.
Description: For the test of the antibacterial action, agar plates containing 2 ml of Staphylococcus aureus sowing in 200 ml of agar solution were firstly prepared. Makandechamone was applied in a 1 mg/ml solution to antibiotic test sheets (Schleicher and Schüll) having a diameter of 6 mm and placed on the agar plate. The inoculated Staphylococcus plates were incubated for 16 hours at 37° C. Inhibition halos having the following diameters (mm) were then observed: […]

HIV = details: cited from earlier work

nemorosome II
Activity against certain bee-pathogenic bacteria [1]: active

C=C1CC(C)(C)CCC1CC12CC(CC=C(C)C)C(C)(C)C(C(=O)c3ccccc3)(C1=O)C(O)=C(CC=C(C)C)C2=O (stereo not drawn) [makandechamone]
Stability [2]: Stable
Solubility in medium polar and polar organic solvents ([3]; medium polar and polar organic solvents): soluble
Solubility in water ([3]; water): not very soluble
Inhibition halo size (Staphylococcus aureus; 10 μl of 1 mg/ml solution on 6 mm test sheet): 7 mm
Inhibition halo size (Staphylococcus aureus; 20 μl of 1 mg/ml solution on 6 mm test sheet): 12 mm
Inhibition halo size (Staphylococcus aureus; 40 μl of 1 mg/ml solution on 6 mm test sheet): 14 mm

guttiferone F
HIV-inhibitory action (HIV): HIV-inhibitory action

chamone I
Activity against certain bee-pathogenic bacteria [1]: active
